Test results from patent US9637491B2, “Pyrazolo[4,3-D]pyrimidines as kinase inhibitors” (Origenis GmbH, priority 2012, dated 2017).

Target: T1, SYK kinase (Homo sapiens, UniProt P43405)
T1 construct: purchased Invitrogen, Carlsbad
Test: SYK assay (OMNIA Kinase Assay, Invitrogen)
Type: biochemical
Settings: SYK Activities; 1 mM ATP, 10 μM Omnia Peptide Substrate Tyr 7, 30° C.
In short: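 Continuous-read fluorescence kinase assay: SOX-labelled Tyr 7 peptide (10 μM) with 1 mM ATP and 0.2 mM DTT, 30° C, reaction started by adding SYK. Fluorescence (ex 360/em 485 nm) read every 30 s for 30 min. IC50 from sigmoidal fit of reaction velocity versus inhibitor concentration.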

SMILES	IC50
Fc1cc2cn[nH]c2cc1-c1nc(Nc2ccc(N3CCOCC3)cc2)c2[nH]ncc2n1 [Example 77, 5-(5-fluoro-1H-indazol-6-yl)-N-(4-morpholinophenyl)-1H-pyrazolo[4,3-d]pyrimidin-7-amine]	10 to 100 nM
COCCn1cc(Nc2nc(-c3ncco3)nc3cn[nH]c23)cn1 [Example 256, N-(1-(2-methoxyethyl)-1H-pyrazol-4-yl)-5-(oxazol-2-yl)-1H-pyrazolo[4,3-d]pyrimidin-7-amine]	100 to 1000 nM
COc1ccc(Nc2nc(-c3ccccc3NS(C)(=O)=O)nc3cn[nH]c23)cc1OC [Example 2, N-(2-(7-((3,4-dimethoxyphenyl)amino)-1H-pyrazolo[4,3-d]pyrimidin-5-yl)phenyl)methanesulfonamide]	100 to 1000 nM
c1ccc2sc(-c3nc(Nc4cnn(C5CC5)c4)c4[nH]ncc4n3)nc2c1 [Example 410, 5-(benzo[d]thiazol-2-yl)-N-(1-cyclopropyl-1H-pyrazol-4-yl)-1H-pyrazolo[4,3-d]pyrimidin-7-amine]	< 10 nM
CC(C)(O)Cn1cc(Nc2nc(-c3ccco3)nc3cn[nH]c23)cn1 [Example 451, 1-(4-((5-(furan-2-yl)-1H-pyrazolo[4,3-d]pyrimidin-7-yl)amino)-1H-pyrazol-1-yl)-2-methylpropan-2-ol]	10 to 100 nM
c1coc(-c2nc(Nc3cnn(C4CCOCC4)c3)c3[nH]ncc3n2)c1 [Example 117, 5-(furan-2-yl)-N-(1-(tetrahydro-2H-pyran-4-yl)-1H-pyrazol-4-yl)-1H-pyrazolo[4,3-d]pyrimidin-7-amine]	10 to 100 nM
c1nn(C2CCCOC2)cc1Nc1nc(-c2ccc3cn[nH]c3c2)nc2cn[nH]c12 (centres unmarked) [Example 505, 5-(1H-indazol-6-yl)-N-(1-(tetrahydro-2H-pyran-3-yl)-1H-pyrazol-4-yl)-1H-pyrazolo[4,3-d]pyrimidin-7-amine]	10 to 100 nM
CC(C)Cn1cc(Nc2nc(-c3cccs3)nc3cn[nH]c23)cn1 [Example 432, N-(1-isobutyl-1H-pyrazol-4-yl)-5-(thiophen-2-yl)-1H-pyrazolo[4,3-d]pyrimidin-7-amine]	10 to 100 nM
COCCn1ncc(Nc2nc(-c3ccco3)nc3cn[nH]c23)c1F [Example 403, N-(5-fluoro-1-(2-methoxyethyl)-1H-pyrazol-4-yl)-5-(furan-2-yl)-1H-pyrazolo[4,3-d]pyrimidin-7-amine]	100 to 1000 nM
CC(C)(C)N1CCN(c2ccc(Nc3nc(-c4ccoc4)nc4cn[nH]c34)cc2)CC1 [Example 97, N-(4-(4-(tert-butyl)piperazin-1-yl)phenyl)-5-(furan-3-yl)-1H-pyrazolo[4,3-d]pyrimidin-7-amine]	10 to 100 nM
O=C1CSc2ccc(Nc3nc(-c4ccc5cn[nH]c5c4)nc4cn[nH]c34)cc2N1 [Example 520, 6-((5-(1H-indazol-6-yl)-1H-pyrazolo[4,3-d]pyrimidin-7-yl)amino)-2H-benzo[b][1,4]thiazin-3(4H)-one]	100 to 1000 nM
CC(C)(C#N)c1ccc(Nc2nc(-c3c(F)cccc3F)nc3cn[nH]c23)cc1 [Example 28, 2-(4-((5-(2,6-difluorophenyl)-1H-pyrazolo[4,3-d]pyrimidin-7-yl)amino)phenyl)-2-methylpropanenitrile]	100 to 1000 nM
CC(=O)N1CCC(n2cc(Nc3nc(-c4ccc5cn[nH]c5c4)nc4cn[nH]c34)cn2)CC1 [Example 133, 1-(4-(4-((5-(1H-indazol-6-yl)-1H-pyrazolo[4,3-d]pyrimidin-7-yl)amino)-1H-pyrazol-1-yl)piperidin-1-yl)ethan-1-one]	10 to 100 nM
CN(C)C(=O)Cn1cc(Nc2nc(-c3cccc(-c4cccnc4)c3)nc3cn[nH]c23)cn1 [Example 466, N,N-dimethyl-2-(4-((5-(3-(pyridin-3-yl)phenyl)-1H-pyrazolo[4,3-d]pyrimidin-7-yl)amino)-1H-pyrazol-1-yl)acetamide]	10 to 100 nM
COCCCn1cc(Nc2nc(-c3cccc(S(N)(=O)=O)c3)nc3cn[nH]c23)cn1 [Example 424, 3-(7-((1-(3-methoxypropyl)-1H-pyrazol-4-yl)amino)-1H-pyrazolo[4,3-d]pyrimidin-5-yl)benzenesulfonamide]	100 to 1000 nM
CN1CCC(n2cc(Nc3nc(-c4ccc5cn[nH]c5c4)nc4cn[nH]c34)cn2)CC1 [Example 132, 5-(1H-indazol-6-yl)-N-(1-(1-methylpiperidin-4-yl)-1H-pyrazol-4-yl)-1H-pyrazolo[4,3-d]pyrimidin-7-amine]	10 to 100 nM
CN1C(=O)COc2ccc(Nc3nc(C4CC4)nc4cn[nH]c34)cc21 [Example 497, 6-((5-cyclopropyl-1H-pyrazolo[4,3-d]pyrimidin-7-yl)amino)-4-methyl-2H-benzo[b][1,4]oxazin-3(4H)-one]	100 to 1000 nM
FCCn1cc(Nc2nc(C3CCC3)nc3cn[nH]c23)cn1 [Example 363, 5-cyclobutyl-N-(1-(2-fluoroethyl)-1H-pyrazol-4-yl)-1H-pyrazolo[4,3-d]pyrimidin-7-amine]	10 to 100 nM
CC(=O)N1CCN(c2ccc(Nc3nc(-c4c(F)cccc4F)nc4cn[nH]c34)cc2)CC1 [Example 13, 1-(4-(4-((5-(2,6-difluorophenyl)-1H-pyrazolo[4,3-d]pyrimidin-7-yl)amino)phenyl)piperazin-1-yl)ethan-1-one]	100 to 1000 nM

SMILES	IC50
CC(C)n1cc(Nc2nc(-c3ncco3)nc3cn[nH]c23)cn1 [Example 250, N-(1-isopropyl-1H-pyrazol-4-yl)-5-(oxazol-2-yl)-1H-pyrazolo[4,3-d]pyrimidin-7-amine]	100 to 1000 nM
CC1CC1c1nc(Nc2ccc(N3CCOCC3)cc2)c2[nH]ncc2n1 (centres unmarked) [Example 101, 5-(2-methylcyclopropyl)-N-(4-morpholinophenyl)-1H-pyrazolo[4,3-d]pyrimidin-7-amine]	10 to 100 nM
O=C1OCCN1c1ccc(Nc2nc(-c3cccs3)nc3cn[nH]c23)cc1 [Example 38]	100 to 1000 nM
CN1CCN(c2ccc(Nc3nc(-c4ccoc4)nc4cn[nH]c34)cn2)CC1 [Example 108, 5-(furan-3-yl)-N-(6-(4-methylpiperazin-1-yl)pyridin-3-yl)-1H-pyrazolo[4,3-d]pyrimidin-7-amine]	100 to 1000 nM
COCCCn1cc(Nc2nc(C3CCC3)nc3cn[nH]c23)cn1 [Example 224, 5-cyclobutyl-N-(1-(3-methoxypropyl)-1H-pyrazol-4-yl)-1H-pyrazolo[4,3-d]pyrimidin-7-amine]	10 to 100 nM
Fc1cc(Nc2nc(-c3ccno3)nc3cn[nH]c23)ccc1N1CCOCC1 [Example 70, N-(3-fluoro-4-morpholinophenyl)-5-(isoxazol-5-yl)-1H-pyrazolo[4,3-d]pyrimidin-7-amine]	100 to 1000 nM
Fc1ccccc1-c1nc(Nc2ccc(N3CCOCC3)c(F)c2)c2[nH]ncc2n1 [Example 24, N-(3-fluoro-4-morpholinophenyl)-5-(2-fluorophenyl)-1H-pyrazolo[4,3-d]pyrimidin-7-amine]	100 to 1000 nM
CC(C)n1cc(-c2nc(Nc3ccc(N4CCOCC4)cc3)c3[nH]ncc3n2)cn1 [Example 421, 5-(1-isopropyl-1H-pyrazol-4-yl)-N-(4-morpholinophenyl)-1H-pyrazolo[4,3-d]pyrimidin-7-amine]	10 to 100 nM
COCC(COC)n1cc(Nc2nc(C3CCC3)nc3cn[nH]c23)cn1 [Example 463, 5-cyclobutyl-N-(1-(1,3-dimethoxypropan-2-yl)-1H-pyrazol-4-yl)-1H-pyrazolo[4,3-d]pyrimidin-7-amine]	100 to 1000 nM
Cc1c(Nc2nc(-c3ccoc3)nc3cn[nH]c23)cnn1C1CCOCC1 [Example 295, 5-(furan-3-yl)-N-(5-methyl-1-(tetrahydro-2H-pyran-4-yl)-1H-pyrazol-4-yl)-1H-pyrazolo[4,3-d]pyrimidin-7-amine]	100 to 1000 nM
c1cc(N2CCOCC2)ccc1Nc1nc(C2COCCO2)nc2cn[nH]c12 (centres unmarked) [Example 84, 5-(1,4-dioxan-2-yl)-N-(4-morpholinophenyl)-1H-pyrazolo[4,3-d]pyrimidin-7-amine]	100 to 1000 nM
CN1CCN(c2ccc(Nc3nc(-c4ccc5cn[nH]c5c4)nc4cn[nH]c34)cc2CO)CC1 [Example 536, (5-((5-(1H-indazol-6-yl)-1H-pyrazolo[4,3-d]pyrimidin-7-yl)amino)-2-(4-methylpiperazin-1-yl)phenyl)methanol]	< 10 nM
c1ccc2oc(-c3nc(Nc4cnn(C5CCOCC5)c4)c4[nH]ncc4n3)nc2c1 [Example 446, 5-(benzo[d]oxazol-2-yl)-N-(1-(tetrahydro-2H-pyran-4-yl)-1H-pyrazol-4-yl)-1H-pyrazolo[4,3-d]pyrimidin-7-amine]	10 to 100 nM
CN1CCN(c2ccc(Nc3nc(-c4ccco4)nc4cn[nH]c34)cn2)CC1 [Example 114, 5-(furan-2-yl)-N-(6-(4-methylpiperazin-1-yl)pyridin-3-yl)-1H-pyrazolo[4,3-d]pyrimidin-7-amine]	100 to 1000 nM
CN1CCC(n2cc(Nc3nc(-c4cocn4)nc4cn[nH]c34)cn2)CC1 [Example 129, N-(1-(1-methylpiperidin-4-yl)-1H-pyrazol-4-yl)-5-(oxazol-4-yl)-1H-pyrazolo[4,3-d]pyrimidin-7-amine]	100 to 1000 nM
CC(C)Cn1cc(Nc2nc(-c3ccc4cn[nH]c4c3)nc3cn[nH]c23)cn1 [Example 423, 5-(1H-indazol-6-yl)-N-(1-isobutyl-1H-pyrazol-4-yl)-1H-pyrazolo[4,3-d]pyrimidin-7-amine]	10 to 100 nM
OCCn1cc(Nc2nc(-c3ccco3)nc3cn[nH]c23)cn1 [Example 239, 2-(4-((5-(furan-2-yl)-1H-pyrazolo[4,3-d]pyrimidin-7-yl)amino)-1H-pyrazol-1-yl)ethan-1-ol]	< 10 nM
O=c1cc(Nc2nc(C3CC3)nc3cn[nH]c23)ccn1C1CC1 [Example 296, 1-cyclopropyl-4-((5-cyclopropyl-1H-pyrazolo[4,3-d]pyrimidin-7-yl)amino)pyridin-2(1H)-one]	10 to 100 nM
Cn1ccc(-c2nc(Nc3ccc(N4CCOCC4)cc3)c3[nH]ncc3n2)n1 [Example 175, 5-(1-methyl-1H-pyrazol-3-yl)-N-(4-morpholinophenyl)-1H-pyrazolo[4,3-d]pyrimidin-7-amine]	100 to 1000 nM
